Assay results taken from patent publication US8501911B2, “Methods of reducing inflammation and mucus hypersecretion” (Biomarck Pharmaceuticals, Ltd, priority 1999, dated 2013).
Where two headings read alike, the source gives them in different places. Residues, ends and D or L forms follow the SMILES beside them. *: point of attachment. Myristoyl = CCCCCCCCCCCCCC(=O)*

Key:
[1] = test system: MARCKS protein; test: MARCKS protein level in NHBE cells (Western blot); assay type: cell-based, human; conditions: TNF-α 10 ng/ml 4 h
Procedure: (§1) NHBE cells were treated with the antisense or the control oligonucleotide for 3 days and then stimulated with PMA (100 nM)+8-Br-cGMP (1 μM) for 15 min. Mucin secretion was analyzed by ELISA. Total RNA and protein were isolated from treated cells. MARCKS mRNA was assessed by Northern hybridization, and protein was assessed by Western blot. […] In this regard, MARCKS mRNA as a percent of control is shown in the following results which are designated as Results-I-3A-2:
(§2) Antisense Oligonucleotides—MARCKS antisense oligonucleotide and its corresponding control oligonucleotide were synthesized at Biognostik GmbH (Gottingen, Germany). […] Cells were then incubated with secretagogues, and mucin secretion was measured by ELISA. […] MARCKS mRNA was assessed by Northern hybridization according to conventional procedures using human MARCKS cDNA as a probe. MARCKS protein level was determined by Western blot using purified anti-MARCKS IgG1 (clone 2F12) as the primary detection antibody.
(§3) NHBE cells were incubated with 10 ng/ml human recombinant TNF-α or medium alone for 4 hrs, then stimulated with PMA (100 nM)+8-Br-cGMP (1 μM) for 15 min, or UTP (0.1 mM) for 2 hrs. Secreted mucin was collected and measured by ELISA. […] MARCKS mRNA was assessed by Northern hybridization, and protein by the Western Blot technique. […]

[2] = test system: MARCKS mRNA; test: MARCKS mRNA level in NHBE cells (Northern hybridization); assay type: cell-based, human; conditions: TNF-α 10 ng/ml 4 h, then PMA 100 nM+8-Br-cGMP 1 μM 15 min
Procedure: as §1, §2, §3

[3] = test system: LPS-induced lung inflammation; assay type: in vivo, mouse; conditions: for Hb / MPO / LDH / Total Protein: BAL fluid; for % Inhibition of MPO: mouse, in vivo; for % Inhibition of neutrophil migration: relative to PBS/LPS treatment
Procedure: Thus, six to seven week old CD1 female mice weighing 15-20 grams were obtained from Charles River laboratories and housed in groups of 5 mice per cage. The animals received standard rodent diet and filtered water ad libitum. The animals were housed under NIH prescribed guidelines at standard temperature (64° to 79° F.) and relative humidity of 30 to 70%.
Four treatment groups of mice, with 5 animals in each group, were treated either with PBS followed by PBS, with PBS followed by LPS, with (myristoylated) MANS peptide followed by LPS, or with peptide of SEQ ID NO: 15 (MA-GAQFSKTAAK) followed by LPS.
Intranasal peptide instillation pre-treatment: A peptide of the invention to be evaluated in vivo for its ability to inhibit or reduce LPS-induced lung inflammation was dissolved in PBS at a concentration of 1 mM. Animals, anesthetized with 0.8% isofluorane by inhalation, were pretreated with 2×10 μl intranasal bolus of the peptide solution into one nostril 30 minutes prior to subsequent instillation with LPS.
Intranasal LPS instillation: Lipopolysaccharide (LPS) Endotoxin (Escherichia coli Serotype 011:B4 derived endotoxin; Sigma, St Louis, Mo.; see Sigma product information sheet L4130 titled Lipopolysaccharides from Escherichia coli 011:B4) was dissolved into phosphate buffered saline (PBS) at 2,500 μg/mL. To expose animals to endotoxin, a 10 μL intranasal bolus of 2,500 μg/ml endotoxin solution was administered to animals which had been anesthetized with 0.8% isofluorane by inhalation. The 10 μL bolus was applied into one nostril. Animals were monitored for labored breathing, lethargy, and decreased water/food intake following the endotoxin instillations.
Bronchoalveolar Lavage (BAL): Six hours after the last instillation, the animals were anesthetized (90 mg/kg Nembutal) and sacrificed by exsanguination. The lung was serially lavaged 2 times with 1.0 mL aliquots of PBS. The collected BAL fluid was centrifuged to remove the cells for subsequent counting and differential analysis. Recovered lavage fluid was used for analysis of total protein, myeloperoxidase (MPO), LDH, and hemoglobin.
Analysis: Aliquots of the BAL fluid were used immediately to assay for the levels of LDH, total protein, or hemoglobin (Hb) using the COBAS Fara analyzer (COBAS FARA II automated analyzer; Roche Diagnostic Systems Inc., Montclair, N.J.). An aliquot of BAL fluid was frozen at −80° C. for subsequent quantitation of myeloperoxidase (MPO) with a mouse-specific ELISA assay (Cell Sciences, Inc., Canton, Mass.). BAL data were analyzed by standard techniques to examine differences between the control and treatment groups.

[4] = test system: PP2A; test: Protein phosphatase activity assay in NHBE cells, PP2A; assay type: cell-based, human; conditions: 8-Br-cGMP as low as 0.1 μM
Procedure: (§4) To confirm further activation of PP2A by PKG in NHBE cells, cytosolic PP1 and PP2A activities were determined after exposure of the cells to 8-Br-cGMP. […] Accordingly, this PP2A activity appeared critical for mucin secretion to occur; when PKG-induced MARCKS dephosphorylation was blocked by okadaic acid or fostriecin, the secretory response to PKC/PKG activation or UTP stimulation was ameliorated (see Results-I-6-1 and Results-I-6-2, above).
(§5) Protein Phosphatase Activity Assay—PP1 and PP2A activities were measured using a protein phosphatase assay system (Life Technologies, Inc.) as known in the art with slight modification. Huang et al., Adv. Exp. Med. Biol. 396, 209-215 (1996). Briefly, NHBE cells were treated with 8-Br-cGMP or medium alone for 5 min. Cells were then scraped into a lysis buffer (50 mM Tris-HCl (pH 7.4), 0.1% beta-mecaptoethanol, 0.1 mM EDTA, 1 mM benaamidine, 10 μg/ml pepstatin A, 10 μg/ml leupeptin) and disrupted by sonication for 20 s at 4° C. […] Released ^32Pi was counted by scintillation. The protein concentration of each sample was determined by the Bradford assay. PP2A activity was expressed as the sample total phosphatase activity minus the activity remaining in the presence of 1 nM okadaic acid. PP1 activity was expressed as the difference between the activities remaining in the presence of 1 nM and 1 μM okadaic acid, respectively. […]

[5] = test system: PP1; test: Protein phosphatase activity assay in NHBE cells, PP1; assay type: cell-based, human; conditions: after exposure to 8-Br-cGMP
Procedure: as §4, §5

TNF-α
Increase in MARCKS protein vs medium only (Western blot) [1]: three- to four-fold increase | MARCKS protein level relative to control ([1]; then PMA 100 nM+8-Br-cGMP 1 μM 15 min): 352% | MARCKS mRNA level relative to control [2]: 115%

CCCCCCCCCCCCCC(=O)NCC(=O)N[C@@H](C)C(=O)N[C@@H](CCC(N)=O)C(=O)N[C@@H](Cc1ccccc1)C(=O)N[C@@H](CO)C(=O)N[C@@H](CCCCN)C(=O)N[C@H](C(=O)N[C@@H](C)C(=O)N[C@@H](C)C(=O)N[C@@H](CCCCN)C(=O)O)[C@@H](C)O [SEQ ID NO: 15, N-myristoyl-GAQFSKTAAK] (Myristoyl-GAQFSKTAAK-OH; C-terminus assumed)
Total Cell Counts ([3]; BAL 6 h after LPS, intranasal peptide 30 min before LPS, Table 4 (PBS/LPS 422,300)): 628,075 | Hb ([3]; Table 4 (PBS/LPS 0.01)): 0.01 g/dL | MPO ([3]; Table 4 (PBS/LPS 17.33)): 0.79 ng/mL | LDH ([3]; Table 4 (PBS/LPS 107.80)): 110.75 units/L | Total Protein ([3]; Table 4 (PBS/LPS 157.40)): 120.25 µg/mL | % Neutrophils of total counts ([3]; Table 4 (PBS/LPS 28.2)): 6.1% | Total Neutrophil counts ([3]; Table 4 (PBS/LPS 119,114)): 38,548 | % Inhibition of MPO [3]: 95.4% | % Inhibition of neutrophil migration [3]: 67.6%

CCCCCCCCCCCCCC(=O)NCC(=O)N[C@@H](C)C(=O)N[C@@H](CCC(N)=O)C(=O)N[C@@H](Cc1ccccc1)C(=O)N[C@@H](CO)C(=O)N[C@@H](CCCCN)C(=O)N[C@H](C(=O)N[C@@H](C)C(=O)N[C@@H](C)C(=O)N[C@@H](CCCCN)C(=O)NCC(=O)N[C@@H](CCC(=O)O)C(=O)N[C@@H](C)C(=O)N[C@@H](C)C(=O)N[C@@H](C)C(=O)N[C@@H](CCC(=O)O)C(=O)N[C@@H](CCCNC(=N)N)C(=O)N1CCC[C@H]1C(=O)NCC(=O)N[C@@H](CCC(=O)O)C(=O)N[C@@H](C)C(=O)N[C@@H](C)C(=O)N[C@H](C(=O)N[C@@H](C)C(=O)O)C(C)C)[C@@H](C)O [MANS peptide] (Myristoyl-GAQFSKTAAKGEAAAERPGEAAVA-OH; C-terminus assumed)
Total cells counted ([3]; BAL 6 h after LPS, intranasal 2×10 μl of 1 mM peptide 30 min before LPS, Table 3 (PBS/LPS 264,200)): 208,457 | Hb ([3]; Table 3 (PBS/LPS 0.19)): 0.05 g/dL | MPO ([3]; Table 3 (PBS/LPS 28.98)): 9.49 ng/mL | LDH ([3]; Table 3 (PBS/LPS 60.40)): 68.57 units/L | Total Protein ([3]; Table 3 (PBS/LPS 272.40)): 175.00 µg/mL | % Neutrophils of total cells ([3]; Table 3 (PBS/LPS 41.7)): 30.9% | Total neutrophils counted ([3]; Table 3 (PBS/LPS 110,061)): 64,481 | % Inhibition of MPO [3]: 67.2% | % Inhibition of neutrophil migration [3]: 41.4%

Nc1nc2c(nc(Br)n2[C@@H]2O[C@@H]3COP(=O)(O)O[C@H]3[C@H]2O)c(=O)[nH]1 [8-Br-cGMP]
Increase of PP2A activity [4]: approximately 3 fold | PP2A activity ([4]; 5 min, baseline 0.1): 0.3 nmol/mnin/mg proteins | PP1 activity [5]: unchanged
